# The Bradley open melting point set (2014)
# Several values for one entry are separate records, joined by “and”; a condition that tells them apart may be missing. Equal entries are not always repeated.
row,SMILES,melting point
1,"Cc1ccc(C)c(-c2ccc([N+](=O)[O-])cc2)c1 [2,5-Dimethyl-4'-nitrobiphenyl]",98.3 °C
2,"Oc1cc(Cl)ccc1Cl [2,5-dichlorophenol]",57 °C
3,"COc1ccc(OC)c(C)c1 [2,5-dimethoxytoluene]",20 °C
4,"Cc1ccc(C)n1-c1ccccc1 [2,5-dimethyl-1-phenylpyrrole]",50 °C
5,"Cc1ccc(C)c(N)c1 [2,5-dimethylaniline]",15 °C
6,"Cc1ccc2sc(C)nc2c1 [2,5-dimethylbenzothiazole]",40 °C
7,"c1ccc(-c2nnc(-c3ccccc3)o2)cc1 [2,5-diphenyl-1,3,4-oxadiazole]",140 °C
8,"N#Cc1c(Cl)cccc1Cl [2,6-Dichlorobenzonitrile]",144 °C
9,"O=[N+]([O-])c1cc(I)c(O)c(I)c1 [2,6-Diiodo-4-nitrophenol]",157 °C
10,"Cc1cc(CO)c(O)c(CO)c1 [2,6-bis(hydroxymethyl)-p-cresol]",123 °C
11,"Cc1c(N)cccc1N [2,6-diaminotoluene]",105 °C
12,"CC(C)c1cccc(C(C)C)c1O [2,6-diisopropylphenol]",18 °C
13,"COc1ccc2cc(OC)ccc2c1 [2,6-dimethoxynaphthalene]",153 °C
14,"COc1ccc(B(O)O)c(OC)n1 [2,6-dimethoxypyridine-3-boronic acid]",129 °C
15,"CC(C)CCCC(C)(C)O [2,6-dimethyl-2-heptanol]",-10 °C
16,"Cc1cccc(C)c1N [2,6-dimethylaniline]",11 °C
17,"[C-]#[N+]c1c(C)cccc1C [2,6-dimethylphenyl isocyanide]",74 °C
18,"Cc1cncc(C)n1 [2,6-dimethylpyrazine]",41 °C

row,SMILES,melting point
1,"Nc1c([N+](=O)[O-])cccc1[N+](=O)[O-] [2,6-dinitroaniline]",133 °C
2,"Oc1ccc2ccc(O)cc2c1 [2,7-dihydroxynaphthalene]",186 °C
3,"CC(C)(C)C(=O)Nc1ccccc1B(O)O [2-(2,2,2-trimethylacetamido)benzeneboronic acid]",270 °C
4,"O=C1CCC(N2C(=O)c3ccccc3C2=O)C(=O)N1 (centres undefined) [2-(2,6-Dioxopiperidin-3-yl)-1H-isoindole-1,3(2H)-dione]",270 °C
5,Cc1ncc([N+](=O)[O-])n1CCO [2-(2-Methyl-5-nitro-1H-imidazol-1-yl)ethanol],160 °C
6,Nc1ccccc1NNc1ccccc1 [2-(2-phenylhydrazino)aniline],107 °C
7,"COc1ccc(CCN)cc1OC [2-(3,4-dimethoxyphenyl)ethylamine]",11 °C
8,CC(C)Cc1ccc(C(C)C(=O)O)cc1 (centres undefined) [2-(4-Isobutylphenyl)propanoic acid],77.5 °C
9,Nc1ccccc1N1CCOCC1 [2-(4-morpholinyl)aniline],97 °C
10,CN(C)CCO [2-(Dimethylamino)ethanol],-70 °C
11,OCc1ccccc1O[C@@H]1O[C@H](CO)[C@@H](O)[C@H](O)[C@H]1O [2-(Hydroxymethyl)phenyl beta-D-glucopyranoside],199 °C
12,OCc1ccccc1OC1OC(CO)C(O)C(O)C1O (centres undefined) [2-(Hydroxymethyl)phenyl hexopyranoside],199 °C
13,COc1ccc(C=C[N+](=O)[O-])cc1OCc1ccccc1 [2-(benzyloxy)-1-methoxy-4-(2-nitrovinyl)benzene],120 °C
14,Cc1ccccc1-c1ccccc1P(C(C)(C)C)C(C)(C)C [2-(di-tert-butylphosphino)-2'-methylbiphenyl],92 °C
15,CN(C)CCO [2-(dimethylamino)ethanol],-60 °C
16,CCNCCO [2-(ethylamino)ethanol],-9 °C
17,NC(=O)c1ccccc1OC(F)(F)F [2-(trifluoromethoxy)benzamide],154 °C
18,OB(O)c1ccccc1OC(F)(F)F [2-(trifluoromethoxy)benzeneboronic acid],119 °C

# Next, values leading:
row,melting point,SMILES
1,205 °C,"O=C(O)c1cc(O)ccc1O [2,5-Dihydroxybenzoic acid] [listing 1 of 2 here]"
2,206 °C,"O=C(O)c1cc(O)ccc1O [2,5-Dihydroxybenzoic acid] [listing 2 of 2 here]"
3,96 °C,"Nc1ccc(N)nc1 [2,5-diaminopyridine]"
4,220 °C,"O=C(O)c1cc(Cl)cc([N+](=O)[O-])c1Cl [2,5-dichloro-3-nitrobenzoic acid]"
5,69 °C,"Cc1cc(Cl)c(C)cc1Cl [2,5-dichloro-p-xylene]"
6,130 °C,"N#Cc1cc(Cl)ccc1Cl [2,5-dichlorobenzonitrile]"
7,104 °C,"NNc1cc(Cl)ccc1Cl [2,5-dichlorophenylhydrazine]"
8,148 °C,"O=C(O)c1cc(Cl)sc1Cl [2,5-dichlorothiophene-3-carboxylic acid]"
9,5 °C,"Cc1cc(Cl)ccc1Cl [2,5-dichlorotoluene]"
10,200 °C and 205 °C,"O=C(O)c1cc(O)ccc1O [2,5-dihydroxybenzoic acid]"
11,205 °C,"O=C(O)c1cc(O)ccc1O [2,5-dihydroxybenzoic_acid]"
12,147 °C,"COc1ccc(OC)c(S(N)(=O)=O)c1 [2,5-dimethoxybenzenesulfonamide]"
13,89 °C,"Cc1cc(C=O)c(C)n1-c1ccccc1 [2,5-dimethyl-1-phenylpyrrole-3-carboxaldehyde]"
14,180 °C,"Cc1ccc(C)c(B(O)O)c1 [2,5-dimethylbenzeneboronic acid]"
15,130 °C,"Cc1ccc(C)c(/C=C/C(=O)O)c1 [2,5-dimethylcinnamic acid]"
16,74.8 °C and 76 °C,"Cc1ccc(C)c(O)c1 [2,5-dimethylphenol]"
17,128 °C,"Cc1ccc(C)c(CC(=O)O)c1 [2,5-dimethylphenylacetic acid]"

row,melting point,SMILES
1,37 °C,"CC(C)(C)c1cccc(C(C)(C)C)c1O [2,6-di-tert-butylphenol]"
2,81 °C,"Nc1c(Br)cccc1Br [2,6-dibromoaniline]"
3,113 °C,"Cc1cc(Cl)nc(Cl)c1C#N [2,6-dichloro-4-methylnicotinonitrile]"
4,154 °C,"O=C(O)c1cc(F)c(Cl)nc1Cl [2,6-dichloro-5-fluoronicotinic acid]"
5,71 °C and 71.5 °C,"O=Cc1c(Cl)cccc1Cl [2,6-dichlorobenzaldehyde] [listing 1 of 2 here]"
6,71 °C,"O=Cc1c(Cl)cccc1Cl [2,6-dichlorobenzaldehyde] [listing 2 of 2 here]"
7,160 °C,"O=C(O)Cc1c(Cl)cccc1Cl [2,6-dichlorophenylacetic acid]"
8,2 °C,"Cc1c(Cl)cccc1Cl [2,6-dichlorotoluene]"
9,-54 °C,"CC(C)c1cccc(C(C)C)c1N [2,6-diisopropylaniline]"
10,40 °C,"COc1cccc(OC)c1C [2,6-dimethoxytoluene]"
11,46 °C,"Cc1cccc(C)c1O [2,6-dimethylphenol]"
12,156 °C,O=C(O)CSc1cccc2cccc(Cl)c12 [2-(8-chloro-1-naphthylthio)acetic acid]
13,48 °C,CS(=O)(=O)c1cccs1 [2-(methylsulfonyl)thiophene]
14,52 °C,Cc1ccc(S(=O)(=O)CCO)cc1 [2-(p-toluenesulfonyl)ethanol]
15,55 °C,Cc1ccc(Oc2ccccc2C=O)cc1 [2-(p-tolyloxy)benzaldehyde]
16,-30 °C and -29 °C,Nc1ccccc1C(F)(F)F [2-(trifluoromethyl)aniline]
